Columns and labels:
[1] = cited from earlier work
[2] = Skin penetration study, Franz diffusion apparatus, transport across human epidermis in vitro; type: in vitro ADME; details: binary system with a cell-envelope disordering compound versus standard vehicle/solvent; heat-separated abdominal epidermis, about 31°C
Excerpt: The following data illustrate the effects of incorporating 9-(2-hydroxyethoxymethyl) guanine into a standard vehicle/sol- vent versus the same pharmaceutical active used in a binary system with a cell-envelope disordering compound.
The above data reflect relative transport of 9-(2-hydroxyethoxymethyl) guanine across human epidermis in vitro.
In the above skin penetration studies, human skin, (heat- separated abdominal epidermis, taken at autopsy), was placed in a standard Franz diffusion apparatus (Crown Glass Co., Somerville, N.J.) in a horizontal position between a lower, capped diffusion cell and an upper, open cell. A normal saline solution was added to the lower diffusion cell, abutting the subcutaneous side of the skin, and the test composition comprising a solution of active drug in the carrier at indicated formulation was added to the diffusion cell abutting the epidermal side of the skin.
This cell assembly was kept in a constant-temperature room at about 31°C. At appropriate intervals, each diffusion cell assembly was opened and the diffusate from the cell abutting the subcutaneous side of the skin was withdrawn. Drug active in the diffusate was measured using standard analytical techniques. Each trial was run on a separate sample of human skin.

Penetration (relative transport across human epidermis in vitro) [2]: significantly enhanced
SMILES: Nc1nc2c(ncn2COCCO)c(=O)[nH]1 [9-(2-hydroxyethoxymethyl) guanine]
solubility in lipophilic solvent systems ([1]; lipophilic solvent systems): almost totally insoluble
solubility in water ([1]; water): slightly soluble

— patent EP0095813A2, “Penetrating topical pharmaceutical compositions containing 9-(2-hydroxyethoxymethyl) guanine” (THE PROCTER & GAMBLE COMPANY, priority 1982, dated 1983)
